# From patent US12084430B2, “Tricyclic urea compounds as JAK2 V617F inhibitors” (Incyte Corporation, priority 2022, dated 2024)
# What was measured:
# [1] = In vitro intrinsic clearance; type: in vitro ADME; conditions: human liver microsomes, 1 μM
# Outline: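 Compound at 1 μM was incubated at 37° C with human liver microsomes (0.5 mg protein/mL) and 2 mM NADPH in pH 7.4 phosphate buffer, sampled at 0–30 min and analysed by LC-MS/MS. CLint was derived from t1/2 of depletion and scaled to human hepatic clearance with the well-stirred model (Q 20 mL·min^−1·kg^−1).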
# [2] = target: TRKA (Homo sapiens, UniProt P04629); assay: TRKA enzymatic assay; type: biochemical; conditions: 1 mM ATP
# Outline: (§1)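 The reaction mix held 0.58 nM TRKA, 1 mM ATP and 500 nM biotinylated TK substrate in 50 mM HEPES pH 7.0 with 10 mM MgCl2, 1 mM DTT and 0.5% DMSO, run 60 min at room temperature. Product was detected by TR-FRET as the 665/620 nm ratio. IC50 was fitted from % control activity versus log concentration, using DMSO-only and no-ATP wells as controls.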
# [3] = test system: TRKA; assay: TRKA enzymatic assay; type: biochemical
# Outline: as §1
# [4] = target: KIT (Homo sapiens, UniProt P10721); assay: KIT enzymatic assay; type: biochemical; conditions: 1 mM ATP
# Outline: (§2)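 0.12 nM KIT with 1 mM ATP and 500 nM biotinylated TK substrate in 50 mM HEPES pH 7.0, 10 mM MgCl2, 1 mM DTT, 0.1 mM orthovanadate, 0.5% DMSO; 60 min at room temperature. TR-FRET 665/620 nm ratio; IC50 fitted from percent control activity versus log concentration.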
# [5] = test system: KIT; assay: KIT enzymatic assay; type: biochemical
# Outline: as §2
# [6] = test system: FLT3; assay: FLT3 enzymatic assay; type: biochemical
# Outline: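 Kinase reaction at room temperature in HEPES 50 mM pH 7.0 with 10 mM MgCl2, 1 mM DTT: 0.011 nM FLT3, 1 mM ATP, 500 nM biotinylated TK substrate, 0.5% DMSO. After 60 min, HTRF read as 665/620 nm ratio; IC50 from fit of percent control activity versus log concentration.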
# Chain of TRKA (Homo sapiens, UniProt P04629) (P04629 33-796, species assumed): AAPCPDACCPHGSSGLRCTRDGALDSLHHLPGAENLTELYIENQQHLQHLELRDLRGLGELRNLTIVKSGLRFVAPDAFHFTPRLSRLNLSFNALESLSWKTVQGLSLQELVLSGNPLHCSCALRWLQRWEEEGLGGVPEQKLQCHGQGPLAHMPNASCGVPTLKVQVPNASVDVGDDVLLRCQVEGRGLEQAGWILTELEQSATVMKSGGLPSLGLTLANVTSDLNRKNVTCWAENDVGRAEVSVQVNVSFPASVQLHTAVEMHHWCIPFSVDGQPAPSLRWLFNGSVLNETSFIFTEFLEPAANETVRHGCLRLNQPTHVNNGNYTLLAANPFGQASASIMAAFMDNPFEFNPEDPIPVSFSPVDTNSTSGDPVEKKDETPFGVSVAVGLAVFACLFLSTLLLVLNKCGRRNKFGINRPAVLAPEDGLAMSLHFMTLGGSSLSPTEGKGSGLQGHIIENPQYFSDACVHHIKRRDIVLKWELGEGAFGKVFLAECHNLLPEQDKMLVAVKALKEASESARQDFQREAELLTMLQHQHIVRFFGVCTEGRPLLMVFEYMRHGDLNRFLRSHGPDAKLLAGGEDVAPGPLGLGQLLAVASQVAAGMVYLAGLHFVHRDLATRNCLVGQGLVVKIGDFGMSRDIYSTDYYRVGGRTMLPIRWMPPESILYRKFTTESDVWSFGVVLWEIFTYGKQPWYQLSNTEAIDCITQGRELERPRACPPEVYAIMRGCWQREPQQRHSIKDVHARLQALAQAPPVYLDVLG
# Chain of KIT (Homo sapiens, UniProt P10721) (P10721 26-976, species assumed): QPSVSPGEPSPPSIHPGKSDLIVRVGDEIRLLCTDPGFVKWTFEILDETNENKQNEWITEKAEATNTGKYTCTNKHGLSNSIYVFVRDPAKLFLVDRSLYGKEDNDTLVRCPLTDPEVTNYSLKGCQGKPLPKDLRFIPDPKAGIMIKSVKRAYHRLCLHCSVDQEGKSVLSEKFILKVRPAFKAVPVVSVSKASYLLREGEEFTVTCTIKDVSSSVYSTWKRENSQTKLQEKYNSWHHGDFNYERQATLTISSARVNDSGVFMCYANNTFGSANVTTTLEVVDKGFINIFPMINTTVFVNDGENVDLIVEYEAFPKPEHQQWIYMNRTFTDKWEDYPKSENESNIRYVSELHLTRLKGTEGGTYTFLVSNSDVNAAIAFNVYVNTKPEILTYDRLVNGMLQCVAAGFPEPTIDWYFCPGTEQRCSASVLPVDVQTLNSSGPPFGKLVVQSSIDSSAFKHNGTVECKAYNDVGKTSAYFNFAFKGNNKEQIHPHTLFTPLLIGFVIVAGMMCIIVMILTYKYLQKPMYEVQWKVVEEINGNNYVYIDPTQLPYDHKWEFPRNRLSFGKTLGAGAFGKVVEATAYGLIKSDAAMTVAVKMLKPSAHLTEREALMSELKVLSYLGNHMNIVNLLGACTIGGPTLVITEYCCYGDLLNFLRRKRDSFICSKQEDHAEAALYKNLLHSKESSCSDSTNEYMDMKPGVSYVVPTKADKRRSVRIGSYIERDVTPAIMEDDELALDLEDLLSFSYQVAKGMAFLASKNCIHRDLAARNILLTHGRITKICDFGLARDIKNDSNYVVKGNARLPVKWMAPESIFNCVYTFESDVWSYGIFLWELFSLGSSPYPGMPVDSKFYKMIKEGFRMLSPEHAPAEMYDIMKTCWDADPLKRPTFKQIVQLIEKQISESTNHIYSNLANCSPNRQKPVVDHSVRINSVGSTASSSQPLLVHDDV
SMILES,h-IntCL [1],IC50 [2] [nM],Selectivity TRKA/JH2 V617F [3],IC50 [4] [nM],Selectivity KIT/JH2 V617F [5],Selectivity FLT3/JH2 V617F [6]
"[2H]C([2H])([2H])n1cc(-c2[nH]c3ncc4c(c3c2-c2ccc3c(cnn3CC(F)F)c2)n([C@@H]2CC[C@@H](NC(=O)OC)C2)c(=O)n4C([2H])([2H])[2H])c(F)n1 [Example 14, Methyl ((1R,3R)-3-(8-(1-(2,2-difluoroethyl)-1H-indazol-5-yl)-7-(3-fluoro-1-(methyl-d3)-1H-pyrazol-4-yl)-3-(methyl-d3)-2-oxo-3,6-dihydroimidazo[4,5-d]pyrrolo[2,3-b]pyridin-1(2H)-yl)cyclopentyl)carbamate]",‡ ‡ (h-IntCL of ≥0.7 L/h/kg to ≤1 L/h/kg),> 2500,****** (selectivity of >12500-fold),250 to 1250,***** (selectivity of >5000-fold to ≤12500-fold),****** (selectivity of >12500-fold)
"[2H]C([2H])([2H])n1ncc2cc(-c3c(-c4cn(C([2H])([2H])C([2H])([2H])[2H])nc4F)[nH]c4ncc5c(c34)n([C@@H]3CC[C@@H](NC(=O)OC)C3)c(=O)n5C([2H])([2H])[2H])ccc21 [Example 15, Methyl ((1R,3R)-3-(7-(1-(ethyl-d5)-3-fluoro-1H-pyrazol-4-yl)-3-(methyl-d3)-8-(1-(methyl-d3)-1H-indazol-5-yl)-2-oxo-3,6-dihydroimidazo[4,5-d]pyrrolo[2,3-b]pyridin-1(2H)-yl)cyclopentyl)carbamate]",‡ ‡ (h-IntCL of ≥0.7 L/h/kg to ≤1 L/h/kg),1250 to 2500,****** (selectivity of >12500-fold),250 to 1250,**** (selectivity of >1750-fold to ≤5000-fold),***** (selectivity of >5000-fold to ≤12500-fold)
"[2H]C([2H])([2H])n1cc(-c2[nH]c3ncc4c(c3c2-c2ccc3c(cnn3C(C)C)c2)n([C@@H]2CC[C@@H](NC(=O)OC)C2)c(=O)n4C)c(F)n1 [Example 16, Methyl ((1R,3R)-3-(7-(3-fluoro-1-(methyl-d3)-1H-pyrazol-4-yl)-8-(1-isopropyl-1H-indazol-5-yl)-3-methyl-2-oxo-3,6-dihydroimidazo[4,5-d]pyrrolo[2,3-b]pyridin-1(2H)-yl)cyclopentyl)carbamate]",‡ ‡ (h-IntCL of ≥0.7 L/h/kg to ≤1 L/h/kg),> 2500,****** (selectivity of >12500-fold),1250 to 2500,****** (selectivity of >12500-fold),***** (selectivity of >5000-fold to ≤12500-fold)
"[2H]C([2H])([2H])n1cc(-c2[nH]c3ncc4c(c3c2-c2cc(F)c3c(cnn3C([2H])([2H])[2H])c2)n([C@@H]2CC[C@@H](NC(=O)OC)C2)c(=O)n4C([2H])([2H])[2H])c(F)n1 [Example 17, Methyl ((1R,3R)-3-(8-(7-fluoro-1-(methyl-d3)-1H-indazol-5-yl)-7-(3-fluoro-1-(methyl-d3)-1H-pyrazol-4-yl)-3-(methyl-d3)-2-oxo-3,6-dihydroimidazo[4,5-d]pyrrolo[2,3-b]pyridin-1(2H)-yl)cyclopentyl)carbamate]",‡ ‡ (h-IntCL of ≥0.7 L/h/kg to ≤1 L/h/kg),> 2500,****** (selectivity of >12500-fold),1250 to 2500,****** (selectivity of >12500-fold),****** (selectivity of >12500-fold)
"[2H]C([2H])([2H])n1cc(-c2[nH]c3ncc4c(c3c2-c2ccc3c(cnn3CC(F)F)c2)n([C@@H]2CC[C@@H](NC(=O)OC)C2)c(=O)n4C)c(F)n1 [Example 18, Methyl ((1R,3R)-3-(8-(1-(2,2-difluoroethyl)-1H-indazol-5-yl)-7-(3-fluoro-1-(methyl-d3)-1H-pyrazol-4-yl)-3-methyl-2-oxo-3,6-dihydroimidazo[4,5-d]pyrrolo[2,3-b]pyridin-1(2H)-yl)cyclopentyl)carbamate]",‡ ‡ (h-IntCL of ≥0.7 L/h/kg to ≤1 L/h/kg),> 2500,****** (selectivity of >12500-fold),1250 to 2500,****** (selectivity of >12500-fold),****** (selectivity of >12500-fold)
"[2H]C([2H])([2H])n1c(=O)n([C@@H]2CC[C@@H](NC(=O)OC)C2)c2c3c(-c4ccc5c(c4)COC5(C)C)c(-c4cn(C([2H])([2H])C([2H])([2H])[2H])nc4F)[nH]c3ncc21 [Example 19, Methyl ((1R,3R)-3-(8-(1,1-dimethyl-1,3-dihydroisobenzofuran-5-yl)-7-(1-(ethyl-d5)-3-fluoro-1H-pyrazol-4-yl)-3-(methyl-d3)-2-oxo-3,6-dihydroimidazo[4,5-d]pyrrolo[2,3-b]pyridin-1(2H)-yl)cyclopentyl)carbamate]",‡ ‡ (h-IntCL of ≥0.7 L/h/kg to ≤1 L/h/kg),> 2500,****** (selectivity of >12500-fold),> 2500,****** (selectivity of >12500-fold),****** (selectivity of >12500-fold)
"[2H]C([2H])([2H])n1c(=O)n([C@@H]2CC[C@@H](NC(=O)OC)C2)c2c3c(-c4ccc5c(c4)COC5(C)C)c(-c4cn(CC)nc4F)[nH]c3ncc21 [Example 20, Methyl ((1R,3R)-3-(8-(1,1-dimethyl-1,3-dihydroisobenzofuran-5-yl)-7-(1-ethyl-3-fluoro-1H-pyrazol-4-yl)-3-(methyl-d3)-2-oxo-3,6-dihydroimidazo[4,5-d]pyrrolo[2,3-b]pyridin-1(2H)-yl)cyclopentyl)carbamate]",‡ ‡ (h-IntCL of ≥0.7 L/h/kg to ≤1 L/h/kg),> 2500,****** (selectivity of >12500-fold),> 2500,****** (selectivity of >12500-fold),****** (selectivity of >12500-fold)
"[2H]C([2H])([2H])n1ncc2cc(-c3c(-c4cn(C([2H])(C([2H])([2H])[2H])C([2H])([2H])[2H])nc4F)[nH]c4ncc5c(c34)n([C@@H]3CC[C@@H](NC(=O)OC)C3)c(=O)n5C([2H])([2H])[2H])ccc21 [Example 21, Methyl ((1R,3R)-3-(7-(3-fluoro-1-(propan-2-yl-d7)-1H-pyrazol-4-yl)-3-(methyl-d3)-8-(1-(methyl-d3)-1H-indazol-5-yl)-2-oxo-3,6-dihydroimidazo[4,5-d]pyrrolo[2,3-b]pyridin-1(2H)-yl)cyclopentyl)carbamate]",‡ ‡ (h-IntCL of ≥0.7 L/h/kg to ≤1 L/h/kg),> 2500,****** (selectivity of >12500-fold),1250 to 2500,****** (selectivity of >12500-fold),****** (selectivity of >12500-fold)
